These results are taken from patent US20240125767A1, “METHOD FOR EVALUATING DRUG TOXICITY” (Public University Corporation Yokohama City University, priority 2019, published 2024).

This data set concerns DILI patient-derived organoid (liver organoid from iPS cells 16-24). The protocol: Each of iPS cells derived from human healthy person (1383D2; Kyoto University iPS Research Institute) and iPS cells derived from patients with drug-induced liver injury (16-24; Yokohama City University) were cultured at 5% CO2 and 37° C. for 3 days in a medium obtained by adding 1% B-27 Supplements (GIBCO), BMP4 (25 ng/ml) and CHIR99021 (8 μM) to DMEM/F-12 (Gibco) (10 ml), to induce mesodermal cells.
Each of iPS cells derived from human healthy person (1383D2; Kyoto University iPS Research Institute) and iPS cells derived from patients with drug-induced liver injury (16-24; Yokohama City University) were cultured at 5% CO2 and 37° C. for 5 days in a medium obtained by adding Wnt3a (50 ng/mL) and activin A (100 ng/ml) to a basal medium RPMI (FUJIFILM Corporation) (2 ml), to induce endodermal progenitor cells.
Each of iPS cells derived from human healthy person (1383D2; Kyoto University iPS Research Institute) and iPS cells derived from patients with drug-induced liver injury (16-24; Yokohama City University) were cultured at 5% CO2 and 37° C. for 3 days in a medium obtained by adding 1% B-27 Supplements (GIBCO), BMP4 (25 ng/ml) and CHIR99021 (8 μM) to a basal mixed medium DMEM/F-12 (Gibco) (10 ml), to induce mesodermal progenitor cells. […]

`CC1(C)S[C@@H]2[C@H](NC(=O)[C@H](N)c3ccc(O)cc3)C(=O)N2[C@H]1C(=O)O` [Amoxicillin trihydrate, amoxicillin trihydrate]: the “Toxicity to liver organoid produced using cells derived from a DILI patient, co-cultured with blood cells (result in words)” value is reported as “DILI was not observed”.
